In patent publication US4876269A (priority 1987, dated 1989):
Like-named read-outs stand apart in the source and are kept apart here.

What was measured:
[1] = parameters: species or system male white mice (CF1); settings: mouse, in vivo; for ED50 (effective analgesic dose in 50% of the mice), p.o.: po; for ED50 (effective analgesic dose in 50% of the mice), s.c.: sc
kappa receptor [2] = settings: rat, in vivo
kappa receptor [3] = settings: rat, in vivo; cited from earlier work

Row | Structure (SMILES) | ED50 (effective analgesic dose in 50% of the mice), p.o. [1] [mg/kg] | ED50 (effective analgesic dose in 50% of the mice), s.c. [1] [mg/kg] | other results
1 | CN(C(=O)Cc1ccc(Cl)c(Cl)c1)[C@@H]1c2ccccc2OC[C@H]1N1CCCC1 (relative stereo) [Example 7, trans-3,4-Dichloro-N-methyl-N-[3,4-dihydro-3-(pyrrolidin-1-yl)-2H-benzopyran-4-yl]benzeneacetamide] | 36 | 1.7 | 
2 | CN(C(=O)Cc1ccc(Br)cc1)[C@@H]1c2ccccc2CC[C@H]1N1CCCC1 (relative stereo) [Example 10] | 54. | 8.1 | 
3 | CN(C(=O)Cc1ccccc1)[C@@H]1c2ccccc2CC[C@H]1N1CCCC1 (relative stereo) [Example 11] | > 81. | 30. | 
4 | CN(C(=O)Cc1ccc(C(F)(F)F)cc1)[C@@H]1c2ccccc2CC[C@H]1N1CCCC1 (relative stereo) [Example 12] | 54. | 19. | 
5 | CN(C(=O)Cc1ccc(Cl)c(Cl)c1)[C@@H]1c2cccc(OC(=O)c3ccccc3)c2CC[C@H]1N1CCCC1.Cl (relative stereo) [Example 16, trans-3,4-dichloro-N-methyl-N-[2-(pyrrolidin-1-yl)-5-benzoyloxy-1,2,3,4-tetrahydronaphth-1-yl]benzeneacetamide hydrochloride] | 10. | 0.71 | 
6 | CN(C(=O)Cc1ccccc1)[C@@H]1c2ccccc2OC[C@H]1N1CCCC1.Cl (relative stereo) [Example 19, trans-N-methyl-N-[3,4-dihydro-3-(pyrrolidin-1-yl)-2H-benzopyran-4-yl]benzeneacetamide hydrochloride] | 36. | 1.7 | 
7 | COc1cccc2c1OC[C@@H](N1CCCC1)[C@@H]2N(C)C(=O)Cc1ccc(Cl)c(Cl)c1.Cl (relative stereo) [Example 20, trans-3,4-dichloro-N-methyl-N-[3,4-dihydro-8-methoxy-3-(pyrrolidin-1-yl)-2H-benzopyran-4yl]benzeneacetamide hydrochloride] | 30. | 1.2 | 
8 | COCc1c(O)ccc2c1CC[C@@H](N1CCCC1)[C@@H]2N(C)C(=O)Cc1ccc(Cl)c(Cl)c1 (relative stereo) [Example 25] | 54. | 0.19 | 
9 | COCOc1cccc2c1CC[C@@H](N1CCCC1)[C@@H]2N(C)C(=O)Cc1ccc(Cl)c(Cl)c1 (relative stereo) [Example 48] | 13. | 4.5 | 
10 | COc1cccc2c1CC[C@@H](N1CC=CC1)[C@@H]2N(C)C(=O)Cc1ccc(Cl)c(Cl)c1.Cl (relative stereo) [Example 50, trans-3,4-dichloro-N-methyl-N-[2-(2,5-dihydro-1H-pyrrol-1-yl)-5-methoxy-1,2,3,4-tetrahydronaphth-1-yl]benzeneacetamide hydrochloride] | 3.4 | 0.24 | 
11 | CN(C)C(=S)Oc1cccc2c1CC[C@@H](N1CCCC1)[C@@H]2N(C)C(=O)Cc1ccc(Cl)c(Cl)c1.Cl (relative stereo) [Example 68, trans-3,4-dichloro-N-methyl-N-[2-(pyrrolidin-1-yl)-5-(N,N-dimethylthiocarbamoyloxy)-1,2,3,4-tetrahydronaphth-1-yl]benzeneacetamide hydrochloride] | 18. | 1.7 | 
12 | CN(C(=O)Cc1ccc(Cl)c(Cl)c1)[C@@H]1c2c(ccc3ccccc23)CC[C@H]1N1CCCC1 (relative stereo) [Example 69] | 16. | 3.0 | 
13 | CN1CC[C@]23c4c5ccc(O)c4O[C@H]2[C@@H](O)C=C[C@H]3[C@H]1C5 [Morphine] | 3.8 | 1.0 | % increase over control (urine output) (kappa receptor [2]): 48%; increase in urine flow / diuresis, in words (kappa receptor [2]): minimal or no diuresis; mean cumulative urine output at 5 hours (kappa receptor [2]): 1.38 mL; % increase over control (urine output) (kappa receptor [2]; sc): 159%; mean cumulative urine output at 5 hours (kappa receptor [2]; sc): 2.41 mL; toxicity / deaths (kappa receptor [2]; sc): Toxic (2/8 dead); increase in urine flow, in words (kappa receptor [3]): largely devoid of this property
